Reference: ChEMBL document CHEMBL5576122, “Discovery of Novel Azaphenothiazine Derivatives to Suppress Endometrial Cancer by Targeting GRP75 to Impair Its Interaction with IP3R and Mitochondrial Ca2+ Homeostasis” (J Med Chem, 2024)

What was measured:
[1] = tested on: Ishikawa; experiment: Inhibition of cell proliferation in human Ishikawa cells incubated for 48 hrs by CCK-8 assay
[2] = tested on: KLE; experiment: Inhibition of cell proliferation in human KLE cells incubated for 48 hrs by CCK-8 assay
[3] = target: T1, CYP1A2 (Homo sapiens, UniProt P05177); experiment: Inhibition of CYP1A2 (unknown origin) at 10 uM relative to control; assay type: ADME
T1 sequence (P05177 whole entry): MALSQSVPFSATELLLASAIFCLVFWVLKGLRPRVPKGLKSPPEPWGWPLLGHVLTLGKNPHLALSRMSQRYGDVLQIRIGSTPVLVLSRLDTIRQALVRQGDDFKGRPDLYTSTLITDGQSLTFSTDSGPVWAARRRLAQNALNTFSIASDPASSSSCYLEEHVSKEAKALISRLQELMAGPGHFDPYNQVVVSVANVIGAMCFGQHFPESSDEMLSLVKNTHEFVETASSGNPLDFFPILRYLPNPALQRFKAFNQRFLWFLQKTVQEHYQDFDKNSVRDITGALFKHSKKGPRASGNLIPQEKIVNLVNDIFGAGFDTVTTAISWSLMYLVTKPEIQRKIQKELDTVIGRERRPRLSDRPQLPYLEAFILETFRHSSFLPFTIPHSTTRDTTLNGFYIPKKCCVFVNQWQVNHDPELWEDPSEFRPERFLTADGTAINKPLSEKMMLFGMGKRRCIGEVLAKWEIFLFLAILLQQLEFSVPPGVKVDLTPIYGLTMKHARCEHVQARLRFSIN

[4] = target: CYP2C9 (Homo sapiens, UniProt P11712); experiment: Inhibition of CYP2C9 (unknown origin) at 10 uM relative to control; assay type: ADME
[5] = target: CYP2C19 (Homo sapiens, UniProt P33261); experiment: Inhibition of CYP2C19 (unknown origin) at 10 uM relative to control; assay type: ADME
[6] = target: CYP2D6 (Homo sapiens, UniProt P10635); experiment: Inhibition of CYP2D6 (unknown origin) at 10 uM relative to control; assay type: ADME
[7] = target: CYP3A4 (Homo sapiens, UniProt P08684); experiment: Inhibition of CYP3A4 (unknown origin) at 10 uM relative to control; assay type: ADME
[8] = in vitro; conditions: human, liver microsomes
[9] = in vitro; conditions: human, liver microsomes; remark: listed apart in the source
[10] = in vitro; conditions: mouse, liver microsomes
Description: Metabolic stability in mouse liver microsomes assessed as half life

[11] = in vitro; conditions: mouse, liver microsomes; remark: listed apart in the source
[12] = in vitro; conditions: plasma
Description: Protein binding in plasma (unknown origin)

Chain of CYP2C9 (P11712 whole entry): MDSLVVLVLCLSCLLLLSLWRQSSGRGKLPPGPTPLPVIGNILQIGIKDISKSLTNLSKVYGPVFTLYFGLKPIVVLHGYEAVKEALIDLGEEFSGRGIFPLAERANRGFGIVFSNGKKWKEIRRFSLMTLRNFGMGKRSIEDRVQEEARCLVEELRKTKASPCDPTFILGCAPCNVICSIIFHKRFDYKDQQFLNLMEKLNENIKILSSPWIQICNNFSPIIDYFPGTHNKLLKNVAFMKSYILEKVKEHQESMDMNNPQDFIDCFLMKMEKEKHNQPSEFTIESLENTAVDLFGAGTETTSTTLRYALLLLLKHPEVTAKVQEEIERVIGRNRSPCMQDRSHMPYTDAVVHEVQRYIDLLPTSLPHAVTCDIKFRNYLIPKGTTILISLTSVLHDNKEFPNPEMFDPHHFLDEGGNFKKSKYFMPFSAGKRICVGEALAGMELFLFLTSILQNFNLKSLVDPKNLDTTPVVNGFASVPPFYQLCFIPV
Chain of CYP3A4 (P08684 whole entry): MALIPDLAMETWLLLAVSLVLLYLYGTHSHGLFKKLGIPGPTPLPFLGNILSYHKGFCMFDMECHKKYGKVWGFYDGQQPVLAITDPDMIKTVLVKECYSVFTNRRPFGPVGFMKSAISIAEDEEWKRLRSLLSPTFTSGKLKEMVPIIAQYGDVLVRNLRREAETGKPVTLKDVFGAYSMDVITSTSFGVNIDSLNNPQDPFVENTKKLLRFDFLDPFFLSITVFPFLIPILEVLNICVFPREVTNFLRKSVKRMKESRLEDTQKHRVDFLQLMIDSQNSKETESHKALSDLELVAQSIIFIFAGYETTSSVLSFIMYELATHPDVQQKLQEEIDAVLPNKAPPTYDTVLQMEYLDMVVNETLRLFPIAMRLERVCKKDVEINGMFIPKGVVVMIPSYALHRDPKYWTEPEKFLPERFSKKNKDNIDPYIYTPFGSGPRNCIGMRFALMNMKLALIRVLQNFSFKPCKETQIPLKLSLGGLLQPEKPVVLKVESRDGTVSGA
Chain of CYP2D6 (P10635 whole entry): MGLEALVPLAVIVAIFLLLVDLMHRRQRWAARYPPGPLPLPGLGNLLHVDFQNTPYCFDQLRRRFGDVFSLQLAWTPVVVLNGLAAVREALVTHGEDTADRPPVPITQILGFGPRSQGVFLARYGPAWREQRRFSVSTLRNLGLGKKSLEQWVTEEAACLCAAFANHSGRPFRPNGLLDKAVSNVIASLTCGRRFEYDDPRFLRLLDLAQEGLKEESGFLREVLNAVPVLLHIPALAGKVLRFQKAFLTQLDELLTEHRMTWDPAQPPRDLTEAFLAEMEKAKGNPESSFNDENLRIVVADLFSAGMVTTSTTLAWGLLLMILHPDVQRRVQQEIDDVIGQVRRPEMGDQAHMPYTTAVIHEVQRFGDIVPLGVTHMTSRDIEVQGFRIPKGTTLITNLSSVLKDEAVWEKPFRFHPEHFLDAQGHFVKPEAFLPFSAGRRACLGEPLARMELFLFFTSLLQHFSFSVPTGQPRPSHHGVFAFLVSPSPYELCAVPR
Chain of CYP2C19 (P33261 whole entry): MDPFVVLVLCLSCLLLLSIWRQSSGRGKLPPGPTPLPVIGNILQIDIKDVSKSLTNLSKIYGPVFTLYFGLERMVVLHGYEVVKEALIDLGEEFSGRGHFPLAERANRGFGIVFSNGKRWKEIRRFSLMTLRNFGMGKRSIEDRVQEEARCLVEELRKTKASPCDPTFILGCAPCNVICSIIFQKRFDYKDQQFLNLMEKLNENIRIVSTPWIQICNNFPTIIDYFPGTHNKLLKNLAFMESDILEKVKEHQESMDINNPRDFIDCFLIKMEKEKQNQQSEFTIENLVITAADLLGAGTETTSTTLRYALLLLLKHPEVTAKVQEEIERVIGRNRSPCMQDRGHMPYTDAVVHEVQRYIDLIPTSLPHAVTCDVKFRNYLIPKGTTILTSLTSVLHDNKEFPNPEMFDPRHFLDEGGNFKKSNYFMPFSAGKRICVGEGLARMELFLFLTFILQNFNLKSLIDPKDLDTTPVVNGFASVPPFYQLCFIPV

Compound | IC50 [1] | IC50 [2] | also measured
CC(C)(C)OC(=O)N1CC2(CCN(CCCCCN3c4cc(Cl)ccc4Sc4cccnc43)CC2)C1 | 11.4 µM | – | –
CC(C)(C)OC(=O)N1CC2(CN(CCCCCN3c4cc(Cl)ccc4Sc4cccnc43)C2)C1 | 12.2 µM | – | –
CC(C)(C)OC(=O)N1C2CC1CN(CCCCCN1c3cc(Cl)ccc3Sc3cccnc31)C2 | 53.4 µM | – | –
COc1ccc2c(c1)N(CCCCCN1CCC3(CC1)CCN(C(=O)OC(C)(C)C)CC3)c1ncccc1S2 | 3.95 µM | 8.06 µM | –
CC(C)(C)OC(=O)N1CC2CC1CN2CCCCCN1c2cc(Cl)ccc2Sc2cccnc21 (centres undefined) | 21.3 µM | – | –
CC(C)(C)OC(=O)N1CCCC12CCN(CCCCCN1c3cc(Cl)ccc3Sc3cccnc31)CC2 | 7.4 µM | 8.52 µM | –
CC(C)(C)OC(=O)N1CCC2(CCN(CCCCCN3c4cc(Cl)ccc4Sc4cccnc43)C2)CC1 | 11.6 µM | – | –
CC(C)(C)OC(=O)N1CCC2(CC1)CN(CCCCCN1c3cc(Cl)ccc3Sc3cccnc31)CCO2 | 45.4 µM | – | –
CC(C)(C)OC(=O)N1CCC2(CCCN(CCCCCN3c4cc(Cl)ccc4Sc4cccnc43)C2)CC1 | 47.5 µM | – | –
CC(C)(C)OC(=O)N1CCC2(CCN(CCCCCN3c4cc(C(F)(F)F)ccc4Sc4cccnc43)CC2)CC1 | 6.75 µM | 14.5 µM | –
Clc1ccc2c(c1)N(CCCCCN1CCC3(CC1)CCN(Cc1ccccc1)CC3)c1ncccc1S2 | 2.4 µM | 3.96 µM | –
CC(C)(C)OC(=O)N1CCC2(CCN(CCCCCN3c4cc(Cl)ccc4Sc4cccnc43)CC2)CC1 | 5.37 µM | 9.55 µM | –
COc1ccc2c(c1)N(CCCCCN1CCC3(CCN(C)CC3)CC1)c1ncccc1S2 | – | – | inhibition at 10 µM [3]: 0%; inhibition at 10 µM [4]: 7%; inhibition at 10 µM [5]: 7.5%; inhibition at 10 µM [6]: 14.8%; inhibition at 10 µM [7]: 20%
CC(C)(C)OC(=O)N1C[C@]2(C)C[C@@]1(C)CN2CCCCCN1c2cc(Cl)ccc2Sc2cccnc21 | 18.7 µM | – | –
CC(C)(C)OC(=O)N1CCC2(CCN(CCCCCN3c4cc(Cl)ccc4Sc4cccnc43)CC2)C1 | 735 µM | 10.7 µM | –
CN1CCC2(CC1)CCN(CCCCCN1c3cc(Cl)ccc3Sc3cccnc31)CC2 | 1.21 µM | 3.17 µM | –
C#CCN1CCC2(CC1)CCN(CCCCCN1c3cc(Cl)ccc3Sc3cccnc31)CC2 | 4.58 µM | 8.31 µM | –
CC(C)(C)OC(=O)N1CCC2(CCN(CCCCCN3c4cc(Cl)ccc4Sc4cccnc43)C2)C1 (centres undefined) | 10.9 µM | – | –

Compound | IC50 [1] | IC50 [2] | also measured
O=C1CC2(CCN(CCCCCN3c4cc(Cl)ccc4Sc4cccnc43)CC2)C(=O)N1 | 14.5 µM | – | –
CC(C)(C)OC(=O)N1CCC2(CCN(CCCCCCN3c4cc(Cl)ccc4Sc4cccnc43)CC2)CC1 | 13.3 µM | – | –
CCCN1CCC2(CC1)CCN(CCCCCN1c3cc(Cl)ccc3Sc3cccnc31)CC2 | 1.41 µM | 3.53 µM | –
Clc1ccc(CN2CCC3(CCN(CCCCCN4c5cc(Cl)ccc5Sc5cccnc54)CC3)CC2)cc1 | 2.57 µM | 3.49 µM | –
CC(C)(C)OC(=O)N1CCC2(CC1)CN(CCCCCN1c3cc(Cl)ccc3Sc3cccnc31)C2 | 8.23 µM | – | –
CN(C)CCCN1c2ccccc2Sc2ccc(Cl)cc21.Cl [CHLORPROMAZINE HYDROCHLORIDE] | 22 µM | 35 µM | half-life [8]: 23.8 min; CLint scaled [9]: 52.3 mL/min/kg; half-life [10]: 7.6 min; CLint scaled [11]: 724 mL/min/kg; fraction unbound [12]: 0.0156
CC(C)(C)OC(=O)N1CCC2(CCN(CCCCCN3c4ccccc4Sc4cccnc43)CC2)CC1 | 6 µM | 9.99 µM | –
CC(C)(C)OC(=O)N1CCC2(CCN(CCCCN3c4cc(Cl)ccc4Sc4cccnc43)CC2)CC1 | 11.1 µM | – | –
Clc1ccc2c(c1)N(CCCCCN1CCC3(CC1)CCN(Cc1ccccn1)CC3)c1ncccc1S2 | 12.8 µM | – | –
O=C1CC2(CCN(Cc3ccccc3)CC2)CC(=O)N1CCCCCN1c2cc(Cl)ccc2Sc2cccnc21 | 27.5 µM | – | –
CC(=O)N1CCC2(CCN(CCCCCN3c4cc(Cl)ccc4Sc4cccnc43)CC2)CC1 | 10.4 µM | – | –
CC(C)(C)OC(=O)N1CCC2(CN(CCCCCN3c4cc(Cl)ccc4Sc4cccnc43)C2)C1 | 12.7 µM | – | –
CCN(CC)c1ccc2c(c1)N(CCCCCN1CCC3(CCN(C)CC3)CC1)c1ncccc1S2 | 17.5 µM | – | –
Clc1ccc2c(c1)N(CCCCCN1CCC3(CCNCC3)CC1)c1ncccc1S2 | 1.7 µM | 2.88 µM | –
CC(C)(C)OC(=O)N1CC2(CCN(CCCCCN3c4cc(Cl)ccc4Sc4cccnc43)C2)C1 | 14.4 µM | – | –
CC(C)(C)OC(=O)N1CCC2(CCCN2CCCCCN2c3cc(Cl)ccc3Sc3cccnc32)CC1 | 13.3 µM | – | –
CC(C)(C)OC(=O)N1CCC2(CC1)CCN2CCCCCN1c2cc(Cl)ccc2Sc2cccnc21 | 6.13 µM | 6.23 µM | –
CN1CCC2(CC1)CCN(CCCCCN1c3cc(OCc4ccccc4)ccc3Sc3cccnc31)CC2 | 14.6 µM | – | –
